Reference: the supplement of paper PMC10627819
Values after ≈ are worked out from the molar mass of the structure shown.

Tests used:
B. subtilis 168 [1] = assay: fitness (endpoint OD595 vs no drug) (fraction); higher = more growth
Method in brief: (§1)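 With the first reading as background, OD595 was measured every 30 min for 14 h in 384-well plates kept at 37 °C and inoculated at OD595 0.01. TSB, LB Lennox or CY was the medium. Fitness is the optical density at the transition into stationary phase divided by the robust mean of no-drug control wells, with a cap of 1.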

S. aureus Newman [2] = assay: as above
Method in brief: as §1

S. pneumoniae D39V [3] = assay: as above
Method in brief: as §1

S. aureus DSM 20231 [4] = assay: as above
Method in brief: as §1

B. subtilis 168 [5] = test system: B. subtilis 168
S. aureus Newman [6] = test system: S. aureus Newman
S. pneumoniae D39V [7] = test system: S. pneumoniae D39V
S. aureus DSM 20231 [8] = test system: S. aureus DSM 20231
[9] = 0.5 µg/mL, main component drawn

With C[n+]1ccc(-c2cc[n+](C)cc2)cc1 [Paraquat] the fitness (B. subtilis 168 [1]; 1.25 µg/mL) was 0.912, the fitness (B. subtilis 168 [1]; 2.5 µg/mL) was 0.899 and the fitness (B. subtilis 168 [1]; 5 µg/mL) was 0.848. For the same compound, the fitness (S. aureus Newman [2]; 1.25 µg/mL) was 0.986, the fitness (S. aureus Newman [2]; 2.5 µg/mL) was 0.944 and the fitness (S. aureus Newman [2]; 5 µg/mL) was 0.94. For the same compound, the fitness (S. pneumoniae D39V [3]; 1.5 µg/mL) was 0.992, the fitness (S. pneumoniae D39V [3]; 3 µg/mL) was 0.993 and the fitness (S. pneumoniae D39V [3]; 6 µg/mL) was 0.965. The fitness (S. aureus DSM 20231 [4]; 1.25 µg/mL) was at least 1, the fitness (S. aureus DSM 20231 [4]; 2.5 µg/mL) was 0.99 and the fitness (S. aureus DSM 20231 [4]; 5 µg/mL) was 0.988. It also gave an MIC (B. subtilis 168 [5]) of 50 mg/L, an MIC (S. aureus Newman [6]) of 50 mg/L and an MIC (S. pneumoniae D39V [7]) of 10 mg/L. For the same compound, the MIC (S. aureus DSM 20231 [8]) was 50 mg/L.
In the case of CC[C@H]1OC(=O)[C@H](C)[C@@H](O[C@H]2C[C@@](C)(OC)[C@@H](O)[C@H](C)O2)[C@H](C)[C@@H](O[C@@H]2O[C@H](C)C[C@H](N(C)C)[C@H]2O)[C@](C)(O)C[C@@H](C)CN(C)[C@H](C)[C@@H](O)[C@]1(C)O [Azithromycin], the fitness (B. subtilis 168 [1]; 0.25 µg/mL) is reported as 0.891, the fitness (B. subtilis 168 [1]; 0.5 µg/mL) is reported as 0.869 and the fitness (B. subtilis 168 [1]; 1 µg/mL) is reported as 0.699. It also gave a fitness (B. subtilis 168 [1]; 2 µg/mL) of 0.0641, a fitness (S. aureus Newman [2]; 0.125 µg/mL) of 0.93 and a fitness (S. aureus Newman [2]; 0.25 µg/mL) of 0.901. The fitness (S. aureus Newman [2]; 0.5 µg/mL) was 0.706, the fitness (S. pneumoniae D39V [3]; 0.25 µg/mL) was 0.524 and the fitness (S. pneumoniae D39V [3]; 0.5 µg/mL) was 0.323. It also gave a fitness (S. pneumoniae D39V [3]; 1 µg/mL) of 0.096, a fitness (S. aureus DSM 20231 [4]; 0.125 µg/mL) of 0.994 and a fitness (S. aureus DSM 20231 [4]; 0.25 µg/mL) of 0.914. It also gave a fitness (S. aureus DSM 20231 [4]; 0.5 µg/mL) of 0.508, a fitness (S. aureus DSM 20231 [4]; 1 µg/mL) of 0.834 and an MIC (B. subtilis 168 [5]) of 2 mg/L (≈ 2.67 µM). It also gave an MIC (S. aureus Newman [6]) of 0.5 mg/L (≈ 0.668 µM), an MIC (S. pneumoniae D39V [7]) of 2 mg/L (≈ 2.67 µM) and an MIC (S. aureus DSM 20231 [8]) of 0.556 mg/L (≈ 0.742 µM).
Compound CN(N=O)C(=O)N[C@@H](C=O)[C@@H](O)[C@H](O)[C@H](O)CO [Streptozotocin] has a fitness (B. subtilis 168 [1]; 0.15 µg/mL) of 0.987, a fitness (B. subtilis 168 [1]; 0.3 µg/mL) of 0.961 and a fitness (B. subtilis 168 [1]; 0.6 µg/mL) of 0.99. For the same compound, the fitness (S. aureus Newman [2]; 0.15 µg/mL) was 0.852, the fitness (S. aureus Newman [2]; 0.3 µg/mL) was 0.735 and the fitness (S. aureus Newman [2]; 0.6 µg/mL) was 0.524. For the same compound, the fitness (S. pneumoniae D39V [3]; 1.2 µg/mL) was 0.96, the fitness (S. pneumoniae D39V [3]; 2.4 µg/mL) was 0.936 and the fitness (S. pneumoniae D39V [3]; 4.8 µg/mL) was 0.975. The fitness (S. aureus DSM 20231 [4]; 0.15 µg/mL) was 0.891, the fitness (S. aureus DSM 20231 [4]; 0.3 µg/mL) was 0.843 and the fitness (S. aureus DSM 20231 [4]; 0.6 µg/mL) was 0.756. The MIC (B. subtilis 168 [5]) was 0.7 mg/L (≈ 2.64 µM), the MIC (S. aureus Newman [6]) was 0.8 mg/L (≈ 3.02 µM) and the MIC (S. pneumoniae D39V [7]) was 5 mg/L (≈ 18.9 µM). It also gave an MIC (S. aureus DSM 20231 [8]) of 0.8 mg/L (≈ 3.02 µM).
CC1=C\[C@@H](O)CC(=O)Cc2nc(co2)C(=O)N2CCC=C2C(=O)O[C@H](C(C)C)[C@H](C)/C=C/C(=O)NC\C=C\1 [Virginiamycin M1] was tested, and the fitness (B. subtilis 168 [1]; 0.0625 µg/mL) was 0.956, the fitness (B. subtilis 168 [1]; 0.125 µg/mL) was 0.943 and the fitness (B. subtilis 168 [1]; 0.25 µg/mL) was 0.959. It also gave a fitness (S. aureus Newman [2]; 0.0625 µg/mL) of 0.989, a fitness (S. aureus Newman [2]; 0.125 µg/mL) of 1 and a fitness (S. aureus Newman [2]; 0.25 µg/mL) of at least 1. The fitness (S. pneumoniae D39V [3]; 0.5 µg/mL) was at least 1, the fitness (S. pneumoniae D39V [3]; 1 µg/mL) was 0.997 and the fitness (S. pneumoniae D39V [3]; 2 µg/mL) was 0.994. The fitness (S. aureus DSM 20231 [4]; 0.0625 µg/mL) was 0.994, the fitness (S. aureus DSM 20231 [4]; 0.125 µg/mL) was at least 1 and the fitness (S. aureus DSM 20231 [4]; 0.25 µg/mL) was at least 1. The MIC (B. subtilis 168 [5]) was 0.5 mg/L (≈ 0.951 µM), the MIC (S. aureus Newman [6]) was 2 mg/L (≈ 3.81 µM) and the MIC (S. pneumoniae D39V [7]) was 4 mg/L (≈ 7.61 µM).
Cc1cc(NS(=O)(=O)c2ccc(N)cc2)no1 [Sulfamethoxazol] gave a fitness (B. subtilis 168 [1]; 1 µg/mL) of 0.975, a fitness (B. subtilis 168 [1]; 2 µg/mL) of 0.948 and a fitness (B. subtilis 168 [1]; 4 µg/mL) of 0.915. For the same compound, the fitness (S. aureus Newman [2]; 1 µg/mL) was 0.968, the fitness (S. aureus Newman [2]; 2 µg/mL) was 0.984 and the fitness (S. aureus Newman [2]; 4 µg/mL) was 0.978. The fitness (S. pneumoniae D39V [3]; 1 µg/mL) was 0.954, the fitness (S. pneumoniae D39V [3]; 2 µg/mL) was 0.984 and the fitness (S. pneumoniae D39V [3]; 4 µg/mL) was 0.987. The fitness (S. aureus DSM 20231 [4]; 1 µg/mL) was 0.976, the fitness (S. aureus DSM 20231 [4]; 2 µg/mL) was 0.946 and the fitness (S. aureus DSM 20231 [4]; 4 µg/mL) was 0.943. It also gave an MIC (B. subtilis 168 [5]) of over 16 mg/L, an MIC (S. aureus Newman [6]) of over 16 mg/L and an MIC (S. pneumoniae D39V [7]) of 16 mg/L (≈ 63.2 µM). For the same compound, the MIC (S. aureus DSM 20231 [8]) was over 16 mg/L.
CNC(C)C1CCC(N)C(OC2C(N)CC(N)C(OC3OCC(C)(O)C(NC)C3O)C2O)O1 (stereo not given) [Gentamicin] showed a fitness (B. subtilis 168 [1]; 0.0625 µg/mL, main component drawn) of 0.887, a fitness (B. subtilis 168 [1]; 0.125 µg/mL, main component drawn) of 0.131 and a fitness (B. subtilis 168 [1]; 0.25 µg/mL, main component drawn) of 0.0542. The fitness (S. aureus Newman [2]; 0.375 µg/mL, main component drawn) was at least 1, the fitness (S. aureus Newman [2]; [9]) was 0.996 and the fitness (S. aureus Newman [2]; 0.75 µg/mL, main component drawn) was at least 1. The fitness (S. aureus Newman [2]; 1 µg/mL, main component drawn) was 0.992, the fitness (S. aureus Newman [2]; 1.5 µg/mL, main component drawn) was 0.583 and the fitness (S. aureus Newman [2]; 2 µg/mL, main component drawn) was 0.999. For the same compound, the fitness (S. aureus Newman [2]; 4 µg/mL, main component drawn) was 0.302, the fitness (S. pneumoniae D39V [3]; 2 µg/mL, main component drawn) was 1 and the fitness (S. pneumoniae D39V [3]; 4 µg/mL, main component drawn) was 0.986. The fitness (S. pneumoniae D39V [3]; 8 µg/mL, main component drawn) was 0.962, the fitness (S. aureus DSM 20231 [4]; [9]) was at least 1 and the fitness (S. aureus DSM 20231 [4]; 1 µg/mL, main component drawn) was at least 1. It also gave a fitness (S. aureus DSM 20231 [4]; 2 µg/mL, main component drawn) of 0.984, a fitness (S. aureus DSM 20231 [4]; 4 µg/mL, main component drawn) of 0.129 and an MIC (B. subtilis 168 [5]; main component drawn) of 0.25 mg/L (≈ 0.523 µM). It also gave an MIC (S. aureus Newman [6]; main component drawn) of 2 mg/L (≈ 4.19 µM), an MIC (S. pneumoniae D39V [7]; main component drawn) of 18 mg/L (≈ 37.7 µM) and an MIC (S. aureus DSM 20231 [8]; main component drawn) of 2 mg/L (≈ 4.19 µM).
With O=C(O)[C@H]1/C(=C/CO)O[C@@H]2CC(=O)N21 [Clavulanic acid] the fitness (B. subtilis 168 [1]; 1.5 µg/mL) was 0.899, the fitness (B. subtilis 168 [1]; 3 µg/mL) was 0.887 and the fitness (B. subtilis 168 [1]; 6 µg/mL) was 0.769. The fitness (S. pneumoniae D39V [3]; 0.5 µg/mL) was 0.966, the fitness (S. pneumoniae D39V [3]; 1 µg/mL) was 0.939 and the fitness (S. pneumoniae D39V [3]; 2 µg/mL) was 0.867. The MIC (B. subtilis 168 [5]) was 8 mg/L (≈ 40.2 µM), the MIC (S. aureus Newman [6]) was 0.5 mg/L (≈ 2.51 µM) and the MIC (S. pneumoniae D39V [7]) was 2 mg/L (≈ 10 µM). The MIC (S. aureus DSM 20231 [8]) was 0.5 mg/L (≈ 2.51 µM).
For Clc1ccc(COC(Cn2ccnc2)c2ccc(Cl)cc2Cl)c(Cl)c1 (stereo not given) [Miconazole], the fitness (S. pneumoniae D39V [3]; 1.25 µg/mL) was 0.907, the fitness (S. pneumoniae D39V [3]; 2.5 µg/mL) was 0.893 and the fitness (S. pneumoniae D39V [3]; 5 µg/mL) was 0.926. For the same compound, the MIC (B. subtilis 168 [5]) was 5 mg/L (≈ 12 µM), the MIC (S. aureus Newman [6]) was 3 mg/L (≈ 7.21 µM) and the MIC (S. pneumoniae D39V [7]) was 10 mg/L (≈ 24 µM). For the same compound, the MIC (S. aureus DSM 20231 [8]) was 5 mg/L (≈ 12 µM).
Cn1c2cccc(=O)c-2nc2ccccc21 [Pyocyanin] gave a fitness (B. subtilis 168 [1]; 1.25 µg/mL) of 0.886, a fitness (B. subtilis 168 [1]; 2.5 µg/mL) of 0.841 and a fitness (B. subtilis 168 [1]; 5 µg/mL) of 0.708. The fitness (S. aureus Newman [2]; 1.25 µg/mL) was 0.896, the fitness (S. aureus Newman [2]; 2.5 µg/mL) was 0.843 and the fitness (S. aureus Newman [2]; 5 µg/mL) was 0.399. It also gave a fitness (S. pneumoniae D39V [3]; 0.325 µg/mL) of at least 1, a fitness (S. pneumoniae D39V [3]; 0.65 µg/mL) of 0.991 and a fitness (S. pneumoniae D39V [3]; 1.3 µg/mL) of 0.835. For the same compound, the fitness (S. aureus DSM 20231 [4]; 1.25 µg/mL) was 0.997, the fitness (S. aureus DSM 20231 [4]; 2.5 µg/mL) was 0.892 and the fitness (S. aureus DSM 20231 [4]; 5 µg/mL) was 0.59. It also gave an MIC (B. subtilis 168 [5]) of 5 mg/L (≈ 23.8 µM), an MIC (S. aureus Newman [6]) of 5 mg/L (≈ 23.8 µM) and an MIC (S. pneumoniae D39V [7]) of 1.44 mg/L (≈ 6.85 µM). For the same compound, the MIC (S. aureus DSM 20231 [8]) was 5 mg/L (≈ 23.8 µM).
